We go through 22 compounds from US10086085B2, “Bifunctional cytotoxic agents” (priority 2014, dated 2018).

For experiment [1], the system named is N87 (human gastric carcinoma derived from metastatic liver site). Briefly: Cytotoxicity assay for payloads (MTS), N87 cells. It is filed as cell-based. The settings on record: Homo sapiens, 96 h; N87 cells, incubated with compounds for four days, MTS absorbance 490 nm; read-out: N87 IC50. Put shortly: (§1)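 Cells in RPMI 1640 with 10% FBS exposed to compounds for four days at 10 concentrations in duplicate. Viability read by MTS absorbance at 490 nm after 1.5 h, as % of untreated controls; IC50 from four-parameter logistic fit.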

The next experiment concerns HL60 (leukemia). Briefly: Cytotoxicity assay for payloads (MTS), HL-60 cells. It counts as cell-based. The note with it: Homo sapiens, 96 h, incubated with compounds for four days, MTS absorbance 490 nm. A digest of the protocol: as §1

As to `O=C([C@@H]1CCC[C@H](C(=O)N2C[C@@H](CCl)c3c2cc(O)c2ccccc32)C1)N1C[C@@H](CCl)c2c1cc(O)c1ccccc21` [Compound 16, (S)-((1R,3S)-cyclohexane-1,3-diyl)bis(((S)-1-(chloromethyl)-5-hydroxy-1H-benzo[e]indol-3(2H)-yl)methanone)], the half-inhibitory concentration (IC50) (as a rule, the midpoint of a concentration-inhibition curve) is 1.76 nM in experiment [1] and 0.163 nM with HL60 (leukemia).
Turning to `N[C@@H](CCC(=O)N1C[C@H]2C[C@@]23C1=CC(=O)c1ccccc13)C(=O)N1C[C@H]2C[C@@]23C1=CC(=O)c1ccccc13` [Compound 167, (2S)-2-amino-1,5-bis[(1aS,9bR)-5-oxo-1a,2-dihydro-1H-benzo[e]cyclopropa[c]indol-3(5H)-yl]pentane-1,5-dione], the figures for the IC50 (in experiment [1]; with HL60 (leukemia)) were at least 10 nM and 1.45 nM, respectively.
As for `O=C(c1ccc(C(=O)N2C[C@@H](CCl)c3c2cc(O)c2ccccc32)[nH]1)N1C[C@@H](CCl)c2c1cc(O)c1ccccc21` [Compound 32, (S)-(1H-pyrrole-2,5-diyl)bis(((S)-1-(chloromethyl)-5-hydroxy-1H-benzo[e]indol-3(2H)-yl)methanone)], the values for the IC50 (in experiment [1]; in the experiment with HL60 (leukemia)) were 0.052 nM and 0.005 nM, respectively.
In the case of `Cc1c[nH]c2c(O)cc3c(c12)[C@H](CCl)CN3C(=O)C12CC(C(=O)N3C[C@@H](CCl)c4c3cc(O)c3[nH]cc(C)c43)(C1)C2` [Compound 147, bicyclo[1.1.1]pentane-1,3-diylbis{[(1S)-1-(chloromethyl)-5-hydroxy-8-methyl-1,6-dihydropyrrolo[3,2-e]indol-3(2H)-yl]methanone}], the IC50 turned out to be 0.017 nM in experiment [1] and 0.003 nM with HL60 (leukemia).
Regarding `CC(=O)Oc1cc2c(c3ccccc13)[C@H](CCl)CN2C(=O)c1nnc(C(=O)N2C[C@@H](CCl)c3c2cc(OC(C)=O)c2ccccc32)s1` [Compound 144, 1,3,4-thiadiazole-2,5-diylbis[carbonyl(1S)-1-(chloromethyl)-1,2-dihydro-3H-benzo[e]indole-3,5-diyl] diacetate], the IC50 in experiment [1] is over 10 nM; with HL60 (leukemia) it was 3 nM.
`Cc1c[nH]c2c(O)cc3c(c12)[C@H](CCl)CN3C(=O)CNCC(=O)N1C[C@@H](CCl)c2c1cc(O)c1[nH]cc(C)c21` [Compound 165, 2,2′-iminobis{1-[(1S)-1-(chloromethyl)-5-hydroxy-8-methyl-1,6-dihydropyrrolo[3,2-e]indol-3(2H)-yl]ethanone}]: the IC50 in experiment [1] was found to be 8.26 nM; in the experiment on HL60 (leukemia), 0.107 nM.
For `Cc1c[nH]c2c(O)cc3c(c12)[C@H](CCl)CN3C(=O)C12CC(C(=O)N3C[C@@H](CCl)c4c3cc(O)c3ccccc43)(C1)C2` [Compound 154, [(1S)-1-(chloromethyl)-5-hydroxy-1,2-dihydro-3H-benzo[e]indol-3-yl](3-{[(1S)-1-(chloromethyl)-5-hydroxy-8-methyl-1,6-dihydropyrrolo[3,2-e]indol-3(2H)-yl]carbonyl}bicyclo[1.1.1]pent-1-yl)methanone], in that order: 0.026 nM and 0.003 nM.
For `Nc1cc2c(c3ccccc13)[C@H](CCl)CN2C(=O)C12CC(C(=O)N3C[C@@H](CCl)c4c3cc(OP(=O)(O)O)c3ccccc43)(C1)C2` [Compound 161, (1S)-3-[(3-{[(1S)-5-amino-1-(chloromethyl)-1,2-dihydro-3H-benzo[e]indol-3-yl]carbonyl}bicyclo[1.1.1]pent-1-yl)carbonyl]-1-(chloromethyl)-2,3-dihydro-1H-benzo[e]indol-5-yl dihydrogen phosphate], the IC50 in experiment [1] was at least 10 nM; in the experiment with HL60 (leukemia), 27.2 nM.
With `O=C([C@@H]1CNC[C@H](C(=O)N2C[C@@H](CCl)c3c2cc(O)c2ccccc32)C1)N1C[C@@H](CCl)c2c1cc(O)c1ccccc21` [Compound 174, (3R,5S)-piperidine-3,5-diylbis{[(1S)-1-(chloromethyl)-5-hydroxy-1,2-dihydro-3H-benzo[e]indol-3-yl]methanone}], the results for the IC50 (in experiment [1]; with HL60 (leukemia)) were 87.9 nM and 1.97 nM, respectively.
With `O=C(N1C[C@@H](CCl)c2c1cc(O)c1ccccc21)C12CC(C(=O)N3C[C@@H](CCl)c4c3cc(OP(=O)(O)O)c3ccccc43)(C1)C2` [Compound 163, (1S)-1-(chloromethyl)-3-[(3-{[(1S)-1-(chloromethyl)-5-hydroxy-1,2-dihydro-3H-benzo[e]indol-3-yl]carbonyl}bicyclo[1.1.1]pent-1-yl)carbonyl]-2,3-dihydro-1H-benzo[e]indol-5-yl dihydrogen phosphate], the IC50 in experiment [1] was 6.89 nM; with HL60 (leukemia), 0.179 nM.
Turning to `O=C(CCSCCC(=O)N1C[C@@H](CCl)c2c1cc(O)c1ccccc21)N1C[C@@H](CCl)c2c1cc(O)c1ccccc21` [Compound 23, (S)-3,3′-thiobis(1-((S)-1-(chloromethyl)-5-hydroxy-1H-benzo[e]indol-3(2H)-yl)propan-1-one)], the IC50 in experiment [1] was found to be 0.252 nM; in the experiment on HL60 (leukemia) it was 0.072 nM.
As to `Nc1cc2c(c3ccccc13)[C@H](CCl)CN2C(=O)C12CC(C(=O)N3C[C@@H](CCl)c4c3cc(N)c3ccccc43)(C1)C2` [Compound 130, bicyclo[1.1.1]pentane-1,3-diylbis{[(1S)-5-amino-1-(chloromethyl)-1,2-dihydro-3H-benzo[e]indol-3-yl]methanone}], the figures for the IC50 (in experiment [1]; in the experiment on HL60 (leukemia)) were 1.8 nM and 0.227 nM, respectively.
As for `COC(=O)[C@H]1O[C@@H](Oc2cc3c(c4ccccc24)[C@H](CCl)CN3C(=O)C23CC(C(=O)N4C[C@@H](CCl)c5c4cc(O)c4ccccc54)(C2)C3)[C@H](OC(C)=O)[C@@H](OC(C)=O)[C@@H]1OC(C)=O` [Compound 141, (1S)-1-(chloromethyl)-3-[(3-{[(1S)-1-(chloromethyl)-5-hydroxy-1,2-dihydro-3H-benzo[e]indol-3-yl]carbonyl}bicyclo[1.1.1]pent-1-yl)carbonyl]-2,3-dihydro-1H-benzo[e]indol-5-yl methyl 2,3,4-tri-O-acetyl-beta-D-glucopyranosiduronate], the results for the IC50 (in experiment [1]; with HL60 (leukemia)) were 12.7 nM and 0.361 nM, respectively.
With `CC(=O)Nc1ccc2c(OC(C)=O)cc3c(c2c1)[C@H](CCl)CN3C(=O)C12CC(C(=O)N3C[C@@H](CCl)c4c3cc(OC(C)=O)c3ccccc43)(C1)C2` [Compound 109, (1S)-3-[(3-{[(1S)-8-(acetylamino)-5-(acetyloxy)-1-(chloromethyl)-1,2-dihydro-3H-benzo[e]indol-3-yl]carbonyl}bicyclo[1.1.1]pent-1-yl)carbonyl]-1-(chloromethyl)-2,3-dihydro-1H-benzo[e]indol-5-yl acetate], the concentration for half-maximal inhibition (IC50) in experiment [1] came to 2.3 nM; in the experiment on HL60 (leukemia) it was 0.095 nM.
Consider `Nc1cccc(C(CC(=O)N2C[C@@H](CCl)c3c2cc(O)c2ccccc32)CC(=O)N2C[C@@H](CCl)c3c2cc(O)c2ccccc32)c1` [Compound 44, 3-(3-Amino-phenyl)-1,5-bis-((S)-1-chloromethyl-5-hydroxy-1,2-dihydro-benzo[e]indol-3-yl)-pentane-1,5-dione], for which the IC50 in experiment [1] is at least 10 nM; in the experiment with HL60 (leukemia), 5.29 nM.
Consider `CC(=O)Oc1cc2c(c3ccccc13)[C@H](CCl)CN2C(=O)c1cc(C(=O)N2C[C@@H](CCl)c3c2cc(OC(C)=O)c2ccccc32)n(C)n1` [Compound 74, acetic acid (S)-3-[5-((S)-5-acetoxy-1-chloromethyl-1,2-dihydro-benzo[e]indole-3-carbonyl)-1-methyl-1H-pyrazole-3-carbonyl]-1-chloromethyl-2,3-dihydro-1H-benzo[e]indol-5-yl ester], for which the values for the IC50 (in experiment [1]; in the experiment with HL60 (leukemia)) were 76.5 nM and 7.49 nM, respectively.
The like results for `CC(=O)Oc1cc2c(c3c(C)c[nH]c13)[C@H](CCl)CN2C(=O)C12CCC(C(=O)N3C[C@@H](CCl)c4c3cc(OC(C)=O)c3[nH]cc(C)c43)(CC1)CC2` [Compound 85, bicyclo[2.2.2]octane-1,4-diylbis[carbonyl(1S)-1-(chloromethyl)-8-methyl-1,6-dihydropyrrolo[3,2-e]indole-3,5(2H)-diyl]diacetate] were, in that order, 0.053 nM and 0.005 nM.
Regarding `O=C(CCNC(=O)N1C[C@@H](CCl)c2c1cc(O)c1ccccc21)N1C[C@@H](CCl)c2c1cc(O)c1ccccc21` [Compound 65, (S)-1-Chloromethyl-5-hydroxy-1,2-dihydro-benzo[e]indole-3-carboxylic acid [3-((S)-1-chloromethyl-5-hydroxy-1,2-dihydro-benzo[e]indol-3-yl)-3-oxo-propyl]-amide], the IC50 turned out to be 0.554 nM in experiment [1] and 0.004 nM in the experiment on HL60 (leukemia).
As for `CC(=O)Oc1cc2c(c3ccccc13)[C@H](CCl)CN2C(=O)Cc1cccc(CC(=O)N2C[C@@H](CCl)c3c2cc(OC(C)=O)c2ccccc32)c1` [Compound 177, benzene-1,3-diylbis[(1-oxoethane-2,1-diyl)(1S)-1-(chloromethyl)-1,2-dihydro-3H-benzo[e]indole-3,5-diyl] diacetate], the figures for the 50% inhibitory concentration (IC50) (in experiment [1]; in the experiment with HL60 (leukemia)) were 2.12 nM and 0.196 nM, respectively.
For `CC(=O)Oc1cc2c(c3ccccc13)[C@H](CCl)CN2C(=O)CC1(CC(=O)N2C[C@@H](CCl)c3c2cc(OC(C)=O)c2ccccc32)CCC1` [Compound 156, cyclobutane-1,1-diylbis[(1-oxoethane-2,1-diyl)(1S)-1-(chloromethyl)-1,2-dihydro-3H-benzo[e]indole-3,5-diyl] diacetate], the IC50 in experiment [1] was at least 10 nM; in the experiment with HL60 (leukemia), 61.1 nM.
In the case of `CC(=O)Oc1cc2c(c3ccccc13)[C@H](CCl)CN2C(=O)c1sc(C(=O)N2C[C@@H](CCl)c3c2cc(OC(C)=O)c2ccccc32)c2c1OCCCO2` [Compound 142, 3,4-dihydro-2H-thieno[3,4-b][1,4]dioxepine-6,8-diylbis[carbonyl(1S)-1-(chloromethyl)-1,2-dihydro-3H-benzo[e]indole-3,5-diyl] diacetate], the IC50 was at least 100 nM in experiment [1] and at least 10 nM with HL60 (leukemia).
As for `O=C(c1cccc(C(=O)N2C[C@@H](CCl)c3c2cc(O)c2ccccc32)n1)N1C[C@@H](CCl)c2c1cc(O)c1ccccc21` [Compound 18, (S)-pyridine-2,6-diylbis(((S)-1-(chloromethyl)-5-hydroxy-1H-benzo[e]indol-3(2H)-yl)methanone)], the IC50 was 174 nM in experiment [1] and 2.19 nM with HL60 (leukemia).
